The source made the active and inactive calls. The rule behind the calls is not given here.
These compounds were tested against Peptidyl-prolyl cis-trans isomerase FKBP1A (Homo sapiens) (UniProt P62942) (assay: FKBP12 binders, biophysical, NMR detection (AID 608)). Details: NMR binding, purified FKBP12.
Chain of Peptidyl-prolyl cis-trans isomerase FKBP1A (Homo sapiens) (P62942 whole entry, looked up): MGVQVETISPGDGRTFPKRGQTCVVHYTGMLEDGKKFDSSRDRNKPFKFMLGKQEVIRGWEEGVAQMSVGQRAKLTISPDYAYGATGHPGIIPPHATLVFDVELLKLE
In the case of `CN(C(=O)c1cc2cccnc2n(C)c1=O)c1ccccc1`, the Kd is reported as > 4 mM (inactive).
For `COc1ccc2c3c([nH]c2c1)C(C)=NCC3`, the Kd was > 4 mM (inactive).
In the case of `CC(C)(C#N)O[C@@H]1O[C@H](CO)[C@@H](O)[C@H](O)[C@H]1O`, the Kd is reported as > 4 mM (inactive).
`O=C(c1cccc(-n2cnnn2)c1)N1CCOCC1` was tested, and the Kd was > 4 mM (inactive).
With `O=C(CSc1ncccn1)NCc1ccco1` the Kd was > 4 mM (inactive).
In the case of `Cn1cnc2c(cnn2-c2ccccc2)c1=O`, the Kd is reported as > 4 mM (inactive).
For `O=C1CC(=O)N2N=C(c3ccccc3)SC2=N1`, the Kd was > 4 mM (inactive).
With `CN(C)C(=O)c1ccccc1-c1ccccc1` the Kd was > 4 mM (inactive).
For `OCC1CN(Cc2ccccc2)CCO1` (stereo not given), the Kd was > 4 mM (inactive).
`Cc1occc1C(=O)Nc1nnc(C(F)(F)F)s1` was tested, and the Kd was > 4 mM (inactive).
With `Cn1c(SCc2ccon2)nc2ccccc2c1=O` the Kd was > 4 mM (inactive).
With `CC1Cc2nc(SCC(N)=O)n(C)c(=O)c2S1` (stereo not given) the Kd was > 4 mM (inactive).
`COC(=O)c1ccc(N2CCCC2)nc1` was tested, and the Kd was > 4 mM (inactive).
`O=C(CSc1nc2ccccc2[nH]1)N1CCCCC1` was tested, and the Kd was > 4 mM (inactive).
For `O=S(=O)(c1cccc(Cl)c1)N1CCCC1`, the Kd was > 4 mM (inactive).
For `CC(NC(=O)c1cccnc1)c1ccc2c(c1)OCO2` (stereo not given), the Kd was > 4 mM (inactive).
For `CC(=O)NN1C(=O)/C(=C\c2ccc(O)cc2)SC1=S`, the Kd was > 4 mM (inactive).
For `Cc1cc(F)c(F)c(C(=O)NC2CC2)c1Cl`, the Kd was > 4 mM (inactive).
In the case of `Cn1ccc(NC(=S)NC2CCCC2)n1`, the Kd is reported as > 4 mM (inactive).
With `COC(=O)c1scc(S(C)(=O)=O)c1-n1cccc1` the Kd was > 4 mM (inactive).
`COc1ccc(Cl)c(S(=O)(=O)N2CCCC2)c1` was tested, and the Kd was > 4 mM (inactive).
`COc1ccc(OCC(=O)N2CCOCC2)cc1` was tested, and the Kd was “inactive”.
In the case of `COc1ccc2nc(SCC(N)=O)[nH]c2c1`, the Kd is reported as > 4 mM (inactive).
For `Cc1cc(S(=O)(=O)N2CCCC2)ccc1OCC(=O)N1CCOCC1`, the Kd was “inactive”.
`O=C(O)c1cc(O)c2c(c1)C(=O)c1cc(O)cc(O)c1C2=O` was tested, and the Kd was > 4 mM (inactive).
In the case of `O=C(O)c1ccc2nsnc2c1`, the Kd is reported as > 4 mM (inactive).
In the case of `COc1ccc(Cl)cc1NC(=O)c1ccco1`, the Kd is reported as > 4 mM (inactive).
For `Cc1cc(=O)n2[nH]c(N)nc2n1`, the Kd was > 4 mM (inactive).
In the case of `CCOC(=O)C1=C(O)CCN(C)C1`, the Kd is reported as > 4 mM (inactive).
In the case of `Cn1ccnc1C(O)c1ccccc1` (stereo not given), the Kd is reported as > 4 mM (inactive).
In the case of `NC(=O)c1ccc(NC(=O)C2CC2)cc1`, the Kd is reported as > 4 mM (inactive).
For `O=c1ccc2cc(O)c(O)cc2o1`, the Kd was > 4 mM (inactive).
With `O=C(O)c1cccnc1N1CCOCC1` the Kd was > 4 mM (inactive).
`NC(=O)c1sc2ccccc2c1Cl` was tested, and the Kd was > 4 mM (inactive).
In the case of `Cc1cc(=O)[nH]c(NCc2cccnc2)n1`, the Kd is reported as > 4 mM (inactive).
With `Nc1c(Nc2ccccc2)c2ccccc2oc1=O` the Kd was > 4 mM (inactive).
With `CN(C)C(=O)Nc1ccc2c(c1)nnn2C` the Kd was > 4 mM (inactive).
In the case of `COc1cc(C(C)=O)ccc1OCC(O)Cn1ccnc1` (stereo not given), the Kd is reported as > 4 mM (inactive).
`C=C1C([C@]2(C)C(CC(=O)OC)[C@@](C)(COC(C)=O)OC(=O)C[C@@H]2OC(C)=O)[C@@H](OC=O)[C@H](OC(=O)C(OC(C)=O)C(C)CC)[C@@]2(C)[C@H](c3ccoc3)CC(=O)C12O` (stereo not given in full) was tested, and the Kd was > 4 mM (inactive).
`CSc1ccccc1NC(=O)c1ccco1` was tested, and the Kd was > 4 mM (inactive).
With `Cc1csc2nc(=O)c3ccccc3n12` the Kd was > 4 mM (inactive).
For `CC(=O)Nc1ccc(-c2nc(C)c(C(C)=O)n2O)cc1`, the Kd was > 4 mM (inactive).
In the case of `CN(C)c1ccc(CNn2cnnc2)cc1`, the Kd is reported as > 4 mM (inactive).
For `NCCc1nc2ccccc2[nH]1`, the Kd was > 4 mM (inactive).
For `O=C(Oc1ccc(-c2nnco2)cc1)N1CCOCC1`, the Kd was > 4 mM (inactive).
`CC(=O)OCC(=O)[C@@]1(O)CCC2C3CC[C@@H]4C[C@H](OC(C)=O)CC[C@]4(C)C3C(=O)C[C@@]21C` (stereo not given in full) was tested, and the Kd was > 4 mM (inactive).
`COc1ccc(NS(=O)(=O)c2ccc(N)cc2)nn1` was tested, and the Kd was > 4 mM (inactive).
For `CSc1ccc(C(=S)N2CCN(C)CC2)cc1`, the Kd was > 4 mM (inactive).
For `O=C(Nn1cnnc1)c1cc2c(s1)CCCCC2`, the Kd was > 4 mM (inactive).
`CSc1ccc(S(=O)(=O)N2CCCC2)cc1` was tested, and the Kd was > 4 mM (inactive).
`COc1cc(O)c(C(=O)c2ccccc2)cc1O` was tested, and the Kd was > 4 mM (inactive).
For `O=C1NC(=S)N/C1=C\c1cccnc1`, the Kd was > 4 mM (inactive).
`Cc1nc2ccccc2c(=O)n1CCCn1ccnc1` was tested, and the Kd was > 4 mM (inactive).
With `CC(C)c1ccc2c(c1O)CC[C@H]1C3=C(CC[C@]21C)C(=O)OC3` the Kd was > 4 mM (inactive).
With `OCC1CCCCCN1` (stereo not given) the Kd was > 4 mM (inactive).
`Cc1nn(C)c(Cl)c1C(O)c1c(C)nn(C)c1Cl` was tested, and the Kd was > 4 mM (inactive).
In the case of `C=C[C@H]1CN2CC[C@H]1C[C@@H]2[C@@H](O)c1ccnc2ccc(OC)cc12`, the Kd is reported as > 4 mM (inactive).
With `NCCC(=O)N[C@@H](Cc1cnc[nH]1)C(=O)O` the Kd was > 4 mM (inactive).
`Cc1cc(=O)n(CCc2ccccc2)c(O)c1C#N` was tested, and the Kd was > 4 mM (inactive).
In the case of `Cn1c(CO)nc2cc(N)ccc21`, the Kd is reported as > 4 mM (inactive).

Reference: PubChem BioAssay AID608 (Sanford-Burnham Center for Chemical Genomics, 2007)
